Laboratory results as given in article PMC6792352, “Limited Chemical Structural Diversity Found to Modulate Thyroid Hormone Receptor in the Tox21 Chemical Library” (Environmental Health Perspectives, 2019).
Structures can show the parent of a compound that is named as a salt.

Experiment: in vitro
Settings: rat, gh3-tre-luc cells

Compound | CC50 at 24 h (AC50 (uM) modified / 1000) [µM] | further results
CCCCOC(=O)CC(CC(=O)OCCCC)(OC(C)=O)C(=O)OCCCC [Acetyl tributyl citrate] | > 90 | 
C/C=C/C(=O)O [2-Butenoic acid] | > 90 | 
CC(N/C(=N\C#N)Nc1ccncc1)C(C)(C)C (stereo not shown) [Pinacidil monohydrate] | > 50 | 
COC(=O)C(c1ccccc1)C1CCCCN1 (stereo not shown) [Methylphenidate hydrochloride] | > 90 | 
Cc1[nH]c(=O)c(C#N)cc1-c1ccncc1 [Milrinone] | > 90 | 
CNC(=O)Oc1cccc2c1OC(C)(C)O2 [Bendiocarb] |  | CC50 at 24 h (AC50 (uM) modified / 1000, Tox21_110001=Tox21_201562, viability, 1 nM T3 present, 24 h): > 90 µM
CO[C@H]1/C=C/O[C@@]2(C)Oc3c(C)c(O)c4c(O)c(cc(O)c4c3C2=O)NC(=O)/C(C)=C\C=C\[C@H](C)[C@H](O)[C@@H](C)[C@@H](O)[C@@H](C)[C@H](OC(C)=O)[C@@H]1C [Rifamycin SV sodium salt] | 50.2 | 
CSC(=O)c1cccc2nnsc12 [Acibenzolar-S-methyl] | > 90 | 
CCCOC(=O)Cc1ccc(OCC(=O)N(CC)CC)c(OC)c1 [Propanidid] |  | CC50 at 24 h (AC50 (uM) modified / 1000, Tox21_110001=Tox21_113307, viability, 1 nM T3 present, 24 h): > 50 µM
CN[C@@]1(c2ccccc2Cl)CCCCC1=O [(+)-Ketamine] | > 50 | 
CC(C)=CC(C)(C)C [2,4,4-Trimethyl-2-pentene] | > 90 | 
CCCCNC(=O)NS(=O)(=O)c1ccc(N)cc1 [Carbutamide] | > 90 | 
O=S(=O)(O)c1ccc(O)c2ncccc12 [8-Hydroxyquinoline-5-sulfonic acid hydrate (1:x)] | > 90 | 
Cc1cc(C)c(C(=O)O)c(C)c1 [2,4,6-Trimethylbenzoic acid] | > 90 | 
CCc1cccc(C)c1N(C(=O)CCl)[C@@H](C)COC [S-Metolachlor] | > 90 | 
Nc1ccc2c(c1)C(=O)c1ccccc1C2=O [2-Aminoanthraquinone] | > 90 | 
C=Cc1ccc(C(C)(C)C)cc1 [4-tert-Butylstyrene] | > 90 | 
CN(C)[C@@H]1C(=O)C(C(N)=O)=C(O)[C@@]2(O)C(=O)C3=C(O)c4c(O)cccc4[C@@](C)(O)[C@H]3[C@H](O)[C@@H]12 [Oxytetracycline] | > 90 | 
O=C(O)Cc1ccccc1Oc1ccc(Cl)cc1Cl [Fenclofenac] | > 50 | 
COCCOC(=O)C1=C(C)NC(C)=C(C(=O)OC/C=C/c2ccccc2)C1c1cccc([N+](=O)[O-])c1 (stereo not shown) [Cilnidipine] | 12.4 | 

Compound | CC50 at 24 h (AC50 (uM) modified / 1000) [µM] | further results
CCN1C(=O)NC(c2ccccc2)C1=O (stereo not shown) [Ethotoin] | > 20 | 
COc1ccc2cc(CCC(C)=O)ccc2c1 [Nabumetone] | > 20 | 
CO[C@@H]1[C@H](O)C[C@@H](O[C@@H]2C[C@H](Oc3cc4cc5c(c(O)c4c(O)c3C)C(=O)[C@@H](O[C@H]3C[C@@H](O[C@H]4C[C@@H](O[C@H]6C[C@](C)(O)[C@@H](OC(C)=O)[C@H](C)O6)[C@H](O)[C@@H](C)O4)[C@H](O)[C@@H](C)O3)[C@H]([C@H](OC)C(=O)[C@@H](O)[C@@H](C)O)C5)O[C@H](C)[C@@H]2OC(C)=O)O[C@@H]1C [Chromomycin A3] |  | CC50 at 24 h (AC50 (uM) modified / 1000, Tox21_110001=Tox21_112065, viability, 1 nM T3 present, 24 h): 0.366 µM
OC[C@H]1O[C@@H]2O[C@H]3[C@H](O)[C@@H](O)[C@@H](O[C@H]4[C@H](O)[C@@H](O)[C@@H](O[C@H]5[C@H](O)[C@@H](O)[C@@H](O[C@H]6[C@H](O)[C@@H](O)[C@@H](O[C@H]7[C@H](O)[C@@H](O)[C@@H](O[C@H]8[C@H](O)[C@@H](O)[C@@H](O[C@H]1[C@H](O)[C@H]2O)O[C@@H]8CO)O[C@@H]7CO)O[C@@H]6CO)O[C@@H]5CO)O[C@@H]4CO)O[C@@H]3CO [beta-Cyclodextrin] | > 90 | 
CCOC(=O)OCC [Diethyl carbonate] | > 100 | 
Cc1cc(N)c2cc(NC(=O)Nc3ccc4nc(C)cc(N)c4c3)ccc2n1 [Aminoquinuride dihydrochloride] | 35 | 
S=C1SCN(Cc2ccccc2)CN1Cc1ccccc1 [Sulbentine] | 23.1 | 
C=C(Cl)Cl [1,1-Dichloroethylene] |  | CC50 at 24 h (AC50 (uM) modified / 1000, Tox21_110001=Tox21_200357, viability, 1 nM T3 present, 24 h): > 100 µM
S=C(S)N1CCNCC1 [1-Piperazinecarbodithioic acid] |  | CC50 at 24 h (AC50 (uM) modified / 1000, Tox21_110001=Tox21_112759, viability, 1 nM T3 present, 24 h): > 50 µM
O=C(c1ccccc1)c1ccc(O)c(O)c1O [2,3,4-Trihydroxbenzophenone] | 75 | 
CC(C)(OO)c1ccccc1 [Cumene hydroperoxide] | 79.6 | 
NC(=S)Nc1ccccc1 [1-Phenyl-2-thiourea] |  | CC50 at 24 h (AC50 (uM) modified / 1000, Tox21_110001=Tox21_201682, viability, 1 nM T3 present, 24 h): > 90 µM
CC(C)C(Br)C(=O)NC(N)=O (stereo not shown) [Bromisovalum] |  | CC50 at 24 h (AC50 (uM) modified / 1000, Tox21_110001=Tox21_111815, viability, 1 nM T3 present, 24 h): > 50 µM
COC(=O)c1ccccc1S(=O)(=O)NC(=O)Nc1nc(C)cc(C)n1 [Sulfometuron-methyl] |  | CC50 at 24 h (AC50 (uM) modified / 1000, Tox21_110001=Tox21_301843, viability, 1 nM T3 present, 24 h): > 90 µM
CNC(=O)NC(O)C(Cl)(Cl)Cl (stereo not shown) [Mecloralurea] |  | CC50 at 24 h (AC50 (uM) modified / 1000, Tox21_110001=Tox21_112123, viability, 1 nM T3 present, 24 h): > 50 µM
C=Cc1ccc(S(=O)(=O)O)cc1 [Sodium 4-vinylbenzenesulfonate] | 31.8 | 
O=C(c1ccccc1)C1(O)CCCCC1 [(1-Hydroxycyclohexyl)(phenyl)methanone] | > 90 | 
c1ccc2sc(SN(C3CCCCC3)C3CCCCC3)nc2c1 [N,N-Dicyclohexyl-2-benzothiazolesulfenamide] | > 100 | 
Cc1ccccc1N [2-Methylaniline] |  | CC50 at 24 h (AC50 (uM) modified / 1000, Tox21_110001=Tox21_201256, viability, 1 nM T3 present, 24 h): > 90 µM
CCOC(=O)c1cn2nc(OP(=S)(OCC)OCC)cc2nc1C [Pyrazophos] |  | CC50 at 24 h (AC50 (uM) modified / 1000, Tox21_110001=Tox21_301359, viability, 1 nM T3 present, 24 h): > 90 µM

Compound | CC50 at 24 h (AC50 (uM) modified / 1000) [µM] | further results
Cc1ccccc1OCC(O)CO (stereo not shown) [Mephenesin] | > 50 | 
F/C(COc1ccc2c(c1)[nH]c1ccccc12)=C1/CN2CCC1CC2 [2-{[(2E)-2-(1-Azabicyclo[2.2.2]oct-3-ylidene)-2-fluoroethyl]oxy}-9H-carbazole] | 7.59 | 
CC1(C)CCC[C@]2(C)[C@H]3CCO[C@]3(C)CC[C@@H]12 [(-)-Ambroxide] | > 90 | 
CCC(C)(C)OC [tert-Amyl methyl ether] | > 90 | 
OC1CCCCC1c1ccccc1 (stereo not shown) [2-Phenylcyclohexanol] | > 90 | 
CCOC(=O)c1nc(C(Cl)(Cl)Cl)n(-c2ccc(Cl)cc2Cl)n1 [Fenchlorazole-ethyl] | 52.1 | 
CN(C)CCC=C1c2ccccc2C=Cc2ccccc21 [Cyclobenzaprine hydrochloride] | 14.5 | 
C=CCCCCCC [1-Octene] | > 90 | 
CN(C)CCCN(C)C [N,N,N',N'-Tetramethyl-1,3-propanediamine] | > 5 | 
C=COCCOCCOC=C [{2-[2-(Ethenyloxy)ethoxy]ethoxy}ethene] | > 90 | 
C=CC(=O)OCCCCOC(=O)C=C [1,4-Butanediol diacrylate] | 17.5 | 
CCCCCCCC/C=C\CCCCCCCC(=O)OCC [Ethyl oleate] | > 90 | 
CNc1c2c(nn1C)CCCC2 [Tetridamine] | > 50 | 
CC(=O)Nc1ccc(C(=O)O)cc1 [4-Acetamidobenzoic acid] | > 90 | 
OC[P+](CO)(CO)CO [Tetrakis(hydroxymethyl)phosphonium sulfate] |  | CC50 at 24 h (AC50 (uM) modified / 1000, Tox21_110001=Tox21_200928, viability, 1 nM T3 present, 24 h): > 90 µM
N=C1N=C(N)c2ccccc21 [1H-Isoindole-1,3(2H)-diimine] | 35.8 | 
C=C1/C(=C\C=C2/CCC[C@]3(C)[C@@H]([C@H](C)CCCC(C)C)CC[C@@H]23)C[C@@H](O)C[C@@H]1O [Alfacalcidol] | 14.8 | 
C[C@]12C/C(=C/O)C(=O)C[C@@H]1CC[C@@H]1[C@@H]2CC[C@@]2(C)[C@H]1CC[C@]2(C)O [Oxymetholone] |  | CC50 at 24 h (AC50 (uM) modified / 1000, Tox21_110001=Tox21_111131, viability, 1 nM T3 present, 24 h): > 50 µM; CC50 at 24 h (AC50 (uM) modified / 1000, Tox21_110001=Tox21_200071, viability, 1 nM T3 present, 24 h): 67.3 µM
CCOC(=O)OC1=C(c2cc(C)ccc2C)C(=O)N[C@]12CC[C@@H](OC)CC2 [Spirotetramat] | > 90 | 
c1ccc(Cc2ccccc2)cc1 [Diphenylmethane] | > 90 | 
